Tests used:
[1] = test system: C. albicans ON47; assay: Checkerboard titration, FICI; assay type: cell-based, Candida albicans; settings: EDTA + ethanol checkerboard
Protocol: (§1) A fourth composition and solution included tetrasodium EDTA with ethanol or chlorhexidine HCl. This fourth composition and solution were created using checkerboard titration methods using micro broth dilution in 96-well microtiter plates. The concentrations of antimicrobials used were based on previously determined MIC values. Briefly, 200 μL of two-fold dilutions of tetrasodium EDTA and ethanol or chlorhexidine HCl were prepared in MH or MH II broth with standardized cell suspension. […] Microtiter plates were incubated at 37° C. for 24 h, and the results were analyzed. Each test was performed in duplicate and included a growth control without adding any antimicrobials.

[2] = test system: 48-h old biofilms of bacterial and fungal test organisms; assay: Rapid biofilm eradication, 2-h exposure; assay type: cell-based; settings: each agent alone at its MBEC
Protocol: Determining rapid biofilm eradication by tetrasodium EDTA, ethanol, and chlorhexidine HCl alone and in combination was performed. After biofilm formation, control pegs (n=6) were removed and analyzed to determine the starting biofilm cell numbers via the drop dilution method. The 48-h old biofilms on the pegs were exposed to different concentrations of test antimicrobials, dissolved in an appropriate growth medium, for two h to evaluate their efficacy alone and in combination. […] Following treatment, pegs were washed twice with sterile PBS, and the biofilm cells were dislodged into recovery medium and enumerated as described above.
The method for rapid biofilm eradication ability of test antimicrobials alone and in combination against 48-h-old biofilms within two h exposure time included (1) choosing different concentrations of test antimicrobials to assess their potency in eradicating preformed biofilms of study organisms within two h. Then (2) the quantitative recovery from biofilms following exposure to the antimicrobial solutions for bacterial strains (FIGS. 4A-4C) and fungal strains (FIG. 5) was evaluated.

[3] = test system: MRSA ON184; assay: Checkerboard titration, FICI; assay type: cell-based, Staphylococcus aureus; settings: EDTA + ethanol checkerboard
Protocol: as §1

[4] = test system: Pseudomonas aeruginosa SK1; assay: Checkerboard titration, FICI; assay type: cell-based; settings: P. aeruginosa SK1; EDTA + ethanol checkerboard
Protocol: as §1

[5] = test system: Proteus mirabilis ON153; assay: Checkerboard titration, FICI; assay type: cell-based; settings: P. mirabilis ON153; EDTA + ethanol checkerboard
Protocol: as §1

[6] = test system: Escherichia coli ON29; assay: Checkerboard titration, FICI; assay type: cell-based; settings: E. coli ON29; EDTA + ethanol checkerboard
Protocol: as §1

[7] = test system: Candida albicans SK4b; assay: Checkerboard titration, FICI; assay type: cell-based; settings: C. albicans SK4b; EDTA + ethanol checkerboard
Protocol: as §1

[8] = test system: Staphylococcus epidermidis ON170; assay: Checkerboard titration, FICI; assay type: cell-based; settings: S. epidermidis ON170; EDTA + ethanol checkerboard
Protocol: as §1

[9] = test system: Staphylococcus aureus ON89; assay: Checkerboard titration, FICI; assay type: cell-based; settings: S. aureus ON89; EDTA + ethanol checkerboard
Protocol: as §1

[10] = test system: Serratia marcescens SK2; assay: Checkerboard titration, FICI; assay type: cell-based; settings: S. marcescens SK2; EDTA + ethanol checkerboard
Protocol: as §1

[11] = test system: Stenotrophomonas maltophilia ON17; assay: Checkerboard titration, FICI; assay type: cell-based; settings: S. maltophilia ON17; EDTA + ethanol checkerboard
Protocol: as §1

[12] = test system: E. coli SK2; assay: Checkerboard titration, FICI; assay type: cell-based, Escherichia coli; settings: EDTA + ethanol checkerboard
Protocol: as §1

[13] = test system: S. epidermidis SK9; assay: Checkerboard titration, FICI; assay type: cell-based, Staphylococcus epidermidis; settings: EDTA + ethanol checkerboard
Protocol: as §1

[14] = test system: 48-h-old biofilms of bacterial and fungal strains; assay: MBEC assay, summary, 24 h exposure of 48-h-old biofilms; assay type: cell-based
Protocol: A biofilm cultivation cell composition was provided. This fifth composition was created using an MBEC Assay® biofilm inoculator, consisting of a polystyrene lid with 96 downward-protruding pegs and a corresponding base used to grow biofilms. A standardized inoculum was diluted in an appropriate biofilm growth medium to achieve a viable cell count of 1.5×10^6 CFU/mL of bacterial cells or 5×10^5 CFU/mL of fungal cells. Then, 150 μL of this inoculum was transferred into each appropriate well, and the peg lids were inserted into the microtiter plates. The plates were sealed with Parafilm and were incubated at optimum temperature for 48 h with slight rocking for bacteria and shaking at 200 rpm for fungal strains. After incubation, the peg lid was removed from the base and rinsed twice with sterile phosphate-buffered saline (PBS) for 2 min to remove loosely attached non-sessile cells. Before the antimicrobial challenge, the pegs in column 1 (n=8) were considered the biofilm growth control; these pegs were removed from the lids, placed into 200 μL of recovery medium, and analyzed for starting biofilm cell numbers as described below. […] After the antimicrobial challenge, the pegs were rinsed twice with sterile PBS for 2 min and placed into a new 96-well plate containing 200 μL of recovery medium. The recovery plates were sealed with Parafilm, and biofilm cells were dislodged from the pegs by sonication for 30 min with a Branson 3510 bath sonicator. The biofilm cells in the recovery medium were serially diluted, and a drop dilution assay was performed to enumerate the viable cells. MBEC values were determined as the minimum concentration of antimicrobials that yielded a viable cell count at or lower than the 125 CFU/mL detection limit.

## CCO [Ethanol, ethanol, reference compound]
[1]
  Inhibitory concentration in combination: 0.4 % w/v
[2]
  Eradication of preformed biofilms after 2 h of exposure: failed to eradicate
[3]
  Inhibitory concentration in combination: 0.4 % w/v
[4]
  Inhibitory concentration in combination: 3.125 % w/v
[5]
  Inhibitory concentration in combination: 1.6 % w/v
[6]
  Inhibitory concentration in combination: 3.125 % w/v
[7]
  Inhibitory concentration in combination: 1.6 % w/v
[8]
  Inhibitory concentration in combination: 0.4 % w/v
[9]
  Inhibitory concentration in combination: 0.4 % w/v
[10]
  Inhibitory concentration in combination: 3.125 % w/v
[11]
  Inhibitory concentration in combination: 0.4 % w/v
[12]
  Inhibitory concentration in combination: 6.25 % w/v
[13]
  Inhibitory concentration in combination: 0.4 % w/v
[14]
  Concentration alone able to eradicate all established biofilms following 24 h of treatment: 5%

Source: patent US20230263758A1, “COMPOSITIONS OF EDTA HAVING ACTIVITY AGAINST PLANKTONIC AND BIOFILM CELLS OF CLINICALLY RELEVANT PATHOGENS” (SterileCare Inc., priority 2022, published 2023)
